In patent US20260042731A1, “(2,4-DICHLOROPHENOXY)ACETIC ACID ANALOGS” (CORTEVA AGRISCIENCE LLC, priority 2022, published 2026):
Like-named read-outs stand apart in the source and are kept apart here.

Assays:
[1] = test system: Amaranthus rudis (AMATA), tall water hemp; assay: Postemergence herbicide evaluation, growth of Amaranthus rudis (AMATA); type: in vivo; settings: Amaranthus tuberculatus, post-emergence, percent reduction in plant size relative to untreated control, read-out: Ave. AMATA; for pest or weed control at 280 g/ha: 280 g ae/ha; for pest or weed control at 560 g/ha: 560 g ae/ha
[2] = test system: Ambrosia artemisiifolia (AMBEL), common ragweed; assay: Postemergence herbicide evaluation, growth of Ambrosia artemisiifolia (AMBEL); type: in vivo; settings: Ambrosia artemisiifolia, post-emergence, percent reduction in plant size relative to untreated control, read-out: AVE. AMBEL; for pest or weed control at 280 g/ha: 280 g ae/ha; for pest or weed control at 560 g/ha: 560 g ae/ha
[3] = test system: Abutilon theophrasti (ABUTH), velvetleaf; assay: Postemergence herbicide evaluation, growth of Abutilon theophrasti (ABUTH); type: in vivo; settings: Abutilon theophrasti, post-emergence, percent reduction in plant size relative to untreated control, read-out: AVE. ABUTH; for pest or weed control at 280 g/ha: 280 g ae/ha; for pest or weed control at 560 g/ha: 560 g ae/ha
[4] = test system: Chenopodium album (CHEAL), common lambsquarters; assay: Postemergence herbicide evaluation, growth of Chenopodium album (CHEAL); type: in vivo; settings: Chenopodium album, post-emergence, percent reduction in plant size relative to untreated control, read-out: Ave. CHEAL; for pest or weed control at 280 g/ha: 280 g ae/ha; for pest or weed control at 560 g/ha: 560 g ae/ha
[5] = test system: glyphosate resistant Conyza canadensis (L.) (ERICA), horseweed; assay: Postemergence herbicide evaluation, growth of Conyza canadensis (ERICA); type: in vivo; settings: Erigeron canadensis, post-emergence, percent reduction in plant size relative to untreated control, read-out: Ave. ERICA; for pest or weed control at 280 g/ha: 280 g ae/ha; for pest or weed control at 560 g/ha: 560 g ae/ha
[6] = Volatility of compounds measured by thermogravimetric analysis (TGA); type: physicochemical
[7] = test system: weeds (ABUTH, AMATA, AMBEL, CHEAL, ERICA); assay: Postemergence herbicide evaluation, overall average % weed control across ABUTH, AMATA, AMBEL, CHEAL, ERICA; type: in vivo; settings: post-emergence, average over the five weeds, read-out: Overall Ave % Weed Control; for pest or weed control at 280 g/ha: 280 g ae/ha; for pest or weed control at 560 g/ha: 560 g ae/ha

SMILES | pest or weed control at 280 g/ha ([1]; 168 h, 7 DAA) [%] | pest or weed control at 560 g/ha ([1]; 168 h, 7 DAA) [%] | pest or weed control at 280 g/ha ([1]; 336 h, 14 DAA) [%] | pest or weed control at 560 g/ha ([1]; 336 h, 14 DAA) [%] | pest or weed control at 280 g/ha ([1]; 504 h, 21 DAA) [%] | pest or weed control at 560 g/ha ([1]; 504 h, 21 DAA) [%] | pest or weed control at 280 g/ha ([2]; 168 h, 7 DAA) [%] | pest or weed control at 560 g/ha ([2]; 168 h, 7 DAA) [%] | pest or weed control at 280 g/ha ([2]; 336 h, 14 DAA) [%] | pest or weed control at 560 g/ha ([2]; 336 h, 14 DAA) [%] | pest or weed control at 280 g/ha ([2]; 504 h, 21 DAA) [%] | pest or weed control at 560 g/ha ([2]; 504 h, 21 DAA) [%] | pest or weed control at 280 g/ha ([3]; 168 h, 7 DAA) [%] | pest or weed control at 560 g/ha ([3]; 168 h, 7 DAA) [%] | pest or weed control at 280 g/ha ([3]; 336 h, 14 DAA) [%] | pest or weed control at 560 g/ha ([3]; 336 h, 14 DAA) [%] | pest or weed control at 280 g/ha ([3]; 504 h, 21 DAA) [%] | pest or weed control at 560 g/ha ([3]; 504 h, 21 DAA) [%] | pest or weed control at 280 g/ha ([4]; 168 h, 7 DAA) [%] | pest or weed control at 560 g/ha ([4]; 168 h, 7 DAA) [%] | further results
O=C(COc1ccc(Cl)cc1Cl)ON1C(=O)c2ccccc2C1=O [Compound A15, 1,3-Dioxoisoindolin-2-yl 2-(2,4-dichlorophenoxy)acetate] | 73 | 73 | 82 | 78 | 84 | 83 | 73 | 75 | 95 | 88 | 98 | 95 | 78 | 85 | 83 | 95 | 88 | 99 | 68 | 70 | pest or weed control at 280 g/ha ([4]; 336 h, 14 DAA): 73%; pest or weed control at 560 g/ha ([4]; 336 h, 14 DAA): 70%; pest or weed control at 280 g/ha ([4]; 504 h, 21 DAA): 80%; pest or weed control at 560 g/ha ([4]; 504 h, 21 DAA): 75%; pest or weed control at 280 g/ha ([5]; 168 h, 7 DAA): 68%; pest or weed control at 560 g/ha ([5]; 168 h, 7 DAA): 65%; pest or weed control at 280 g/ha ([5]; 336 h, 14 DAA): 78%; pest or weed control at 560 g/ha ([5]; 336 h, 14 DAA): 88%; pest or weed control at 280 g/ha ([5]; 504 h, 21 DAA): 88%; pest or weed control at 560 g/ha ([5]; 504 h, 21 DAA): 95%; TGA Data (rate of weight loss, volatility) [6]: 0.1 µg/min; pest or weed control at 280 g/ha ([7]; 168 h, 7 DAA): 72%; pest or weed control at 560 g/ha ([7]; 168 h, 7 DAA): 74%; pest or weed control at 280 g/ha ([7]; 336 h, 14 DAA): 82%; pest or weed control at 560 g/ha ([7]; 336 h, 14 DAA): 84%; pest or weed control at 280 g/ha ([7]; 504 h, 21 DAA): 87%; pest or weed control at 560 g/ha ([7]; 504 h, 21 DAA): 89%
CN(OC(=O)COc1ccc(Cl)cc1Cl)C(=O)c1ccccc1 [Compound A16, N-(2-(2,4-Dichlorophenoxy)acetoxy)-N-methylbenzamide] | 65 | 83 | 73 | 83 | 65 | 87 | 70 | 78 | 83 | 97 | 88 | 100 | 85 | 88 | 93 | 96 | 94 | 99 | 63 | 68 | pest or weed control at 280 g/ha ([4]; 336 h, 14 DAA): 70%; pest or weed control at 560 g/ha ([4]; 336 h, 14 DAA): 80%; pest or weed control at 280 g/ha ([4]; 504 h, 21 DAA): 68%; pest or weed control at 560 g/ha ([4]; 504 h, 21 DAA): 95%; pest or weed control at 280 g/ha ([5]; 168 h, 7 DAA): 68%; pest or weed control at 560 g/ha ([5]; 168 h, 7 DAA): 75%; pest or weed control at 280 g/ha ([5]; 336 h, 14 DAA): 85%; pest or weed control at 560 g/ha ([5]; 336 h, 14 DAA): 92%; pest or weed control at 280 g/ha ([5]; 504 h, 21 DAA): 93%; pest or weed control at 560 g/ha ([5]; 504 h, 21 DAA): 100%; TGA Data (rate of weight loss, volatility) [6]: 4.3 µg/min; pest or weed control at 280 g/ha ([7]; 168 h, 7 DAA): 70%; pest or weed control at 560 g/ha ([7]; 168 h, 7 DAA): 78%; pest or weed control at 280 g/ha ([7]; 336 h, 14 DAA): 81%; pest or weed control at 560 g/ha ([7]; 336 h, 14 DAA): 89%; pest or weed control at 280 g/ha ([7]; 504 h, 21 DAA): 81%; pest or weed control at 560 g/ha ([7]; 504 h, 21 DAA): 96%
O=C(COc1ccc(Cl)cc1Cl)O/N=C/c1ccc(/C=N/OC(=O)COc2ccc(Cl)cc2Cl)cc1 [Compound B3, (1,1′)-4-(-((2-(2,4-Dichlorophenoxy)acetoxy)imino)methyl)benzaldehyde-O-(2-(2,4-dichlorophenoxy)acetyl) oxime] | 60 | 70 | 58 | 68 | 58 | 68 | 23 | 48 | 45 | 50 | 45 | 53 | 33 | 60 | 13 | 58 | 12 | 58 | 65 | 68 | pest or weed control at 280 g/ha ([4]; 336 h, 14 DAA): 68%; pest or weed control at 560 g/ha ([4]; 336 h, 14 DAA): 70%; pest or weed control at 280 g/ha ([4]; 504 h, 21 DAA): 68%; pest or weed control at 560 g/ha ([4]; 504 h, 21 DAA): 70%; pest or weed control at 280 g/ha ([5]; 168 h, 7 DAA): 55%; pest or weed control at 560 g/ha ([5]; 168 h, 7 DAA): 65%; pest or weed control at 280 g/ha ([5]; 336 h, 14 DAA): 78%; pest or weed control at 560 g/ha ([5]; 336 h, 14 DAA): 80%; pest or weed control at 280 g/ha ([5]; 504 h, 21 DAA): 85%; pest or weed control at 560 g/ha ([5]; 504 h, 21 DAA): 80%; TGA Data (rate of weight loss, volatility) [6]: 0.8 µg/min; pest or weed control at 280 g/ha ([7]; 168 h, 7 DAA): 47%; pest or weed control at 560 g/ha ([7]; 168 h, 7 DAA): 62%; pest or weed control at 280 g/ha ([7]; 336 h, 14 DAA): 52%; pest or weed control at 560 g/ha ([7]; 336 h, 14 DAA): 65%; pest or weed control at 280 g/ha ([7]; 504 h, 21 DAA): 53%; pest or weed control at 560 g/ha ([7]; 504 h, 21 DAA): 66%
